Reference: US9771358B2, “Dihydropyrimidine compounds and their application in pharmaceuticals” (SUNSHINE LAKE PHARMA CO., LTD., priority 2014, dated 2017)
Read-outs that look alike come from different tables or passages of the source.

Columns and labels:
[1] = Stability in liver microsome, monkey; format: in vitro ADME; settings: liver microsomes; monkey liver microsome 0.1 mg/mL, compound 1 μM, NADPH 2 mM
Protocol: (§1) Then two parallel samples were prepared. After a 10 minutes preincubation at 37° C., 15 μL of NADPH solution (8 mM) was added according to the point-in-time. The final concentration of the text compound was 1 μM, the concentration of liver microsome was 0.1 mg/mL, the final concentration of NADPH was 2 mM. The incubations were last for 0, 15, 30, 60 min respectively, and then 150 μL of acetonitrile (include interior label) was added to the mixture system. After dilution with acetonitrile, the samples were centrifuged for 5 minutes in 4000 rpm. The supernatant liquid was collected for LC-MS/MS analysis.

[2] = Stability in liver microsome, human; format: in vitro ADME; settings: liver microsomes; human liver microsome 0.1 mg/mL, compound 1 μM, NADPH 2 mM
Protocol: as §1

[3] = Stability in liver microsome, dog; format: in vitro ADME; settings: liver microsomes; dog liver microsome 0.1 mg/mL, compound 1 μM, NADPH 2 mM
Protocol: as §1

[4] = PK of test compounds in beagle; format: in vivo, beagle dog; settings: for Cmax / Tmax / clearance / half-life / AUC(0-inf) / AUC(0-t) / Vd: dog, plasma; for AUC(0-inf): AUC in 0 hour to infinite time; for Vd: read-out: Vss; for F: absolute bioavailability
Protocol: The test compounds were administrated to beagle dog by gavage in dose of 2.5 mg/kg or 5 mg/kg, or by intravenous injection in dose of 1 mg/kg or 2 mg/kg. Blood sample was collected at 0.083, 0.25, 0.5, 1, 2, 4, 6, 8 and 24 hours from vein after administration into anticoagulation tubes with EDTA-K2. The test compounds were extracted from plasma samples and chromatographed on a tandem mass spectrometer. Quantitation was performed using multiple reaction monitoring (MRM). Pharmacokinetic parameters were calculated using WinNonlin 6.3 software with non compartment model.

HBV = test: In-vitro anti-HBV activity in stable HBV-producing cell line (HepG2.2.15), HBV DNA by qPCR; format: cell-based; settings: Hepatitis B virus, 168 h; HepG2.2.15 cells, HBV DNA in culture fluid, day 7, top concentration 16.4 μM
How it was run: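 HepG2.2.15 cells are dosed 24 hours after seeding, top concentration 16.4 μM with 3-fold dilutions over 9 points in duplicate, and medium is refreshed on day 4. Supernatant HBV DNA is quantified by qPCR on day 7 against DMSO control, and EC50 comes from a four-parameter logistic fit.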

[5] = Stability in liver microsome, mouse; format: in vitro ADME; settings: liver microsomes; mouse liver microsome 0.1 mg/mL, compound 1 μM, NADPH 2 mM
Protocol: as §1

[6] = iv, 1 mg/kg, iv, 1 mg/kg, AUC in 0-24 hours, read-out: AUClast
[7] = po, 2.5 mg/kg, po, 2.5 mg/kg value multiplied by 2, read-out: AUClast ×2 (calculated by dosage)
[8] = po, 2.5 mg/kg, po, 2.5 mg/kg, AUC in 0-24 hours, read-out: AUClast

Row | SMILES | CLint scaled at 1 μM [1] [mL/min/kg] | half-life at 1 μM [1] [h] | CLint scaled at 1 μM [2] [mL/min/kg] | half-life at 1 μM [2] [h] | CLint scaled at 1 μM [3] [mL/min/kg] | half-life at 1 μM [3] [h] | Cmax ([4]; iv, 1 mg/kg) [ng/mL] | Tmax ([4]; iv, 1 mg/kg) [h] | clearance ([4]; iv, 1 mg/kg) [mL/min/kg] | half-life ([4]; iv, 1 mg/kg) [h] | AUC(0-inf) ([4]; iv, 1 mg/kg) [ng·h/mL] | AUC(0-t) [4, 6] [ng·h/mL] | Vd ([4]; iv, 1 mg/kg) [L/kg] | Cmax ([4]; po, 2.5 mg/kg) [ng/mL] | Tmax ([4]; po, 2.5 mg/kg) [h] | half-life ([4]; po, 2.5 mg/kg) [h] | AUC(0-inf) ([4]; po, 2.5 mg/kg) [ng·h/mL] | AUC(0-t) [4, 7] [ng·h/mL] | AUC(0-t) [4, 8] [ng·h/mL] | F ([4]; po, 2.5 mg/kg) [%] | other results
1 | CCOC(=O)C1=C(CN2CCO[C@H](CCC(=O)O)C2)NC(c2nccs2)=N[C@H]1c1ccc(Cl)cc1Cl [Example 12, 3-((R)-4-(((R)-6-(2,4-dichlorophenyl)-5-(ethoxycarbonyl)-2-(thiazol-2-yl)-3,6-dihydropyrimidin-4-yl)methyl)morpholin-2-yl)propanoic acid] | 122 | 0.277 | 18.6 | 1.56 | 17.5 | 3.28 | 2230 | 0.083 | 2.12 | 6.2 | 7970 | 7570 | 0.832 | 2660 | 0.5 | 9.07 | 16800 | 30000 | 15000 | 84.48 | EC50 (HBV): 26 nM; CLint scaled at 1 μM [5]: 604 mL/min/kg; half-life at 1 μM [5]: 0.15 h
2 | COC(=O)C1=C(CN2CCO[C@H](CCC(=O)O)C2)NC(c2nccs2)=N[C@H]1c1ccc(Cl)cc1Cl [Example 13, 3-((R)-4-(((R)-6-(2,4-dichlorophenyl)-5-(methoxycarbonyl)-2-(thiazol-2-yl)-3,6-dihydropyrimidin-4-yl)methyl)morpholin-2-yl)propanoic acid] | 36 | 0.94 | 17.2 | 1.68 | 5.51 | 10.5 | 2920 | 0.083 | 1.49 | 5.08 | 11600 | 11200 | 0.526 | 6410 | 0.667 | 5.29 | 33300 | 64400 | 32200 | 105.6 | EC50 (HBV): 28 nM; CLint scaled at 1 μM [5]: 135 mL/min/kg; half-life at 1 μM [5]: 0.673 h
